Patent US20260151398A1, “COMPOUNDS FOR REDUCING CHOLESTEROL AND TREATING LIVER AND KIDNEY DISEASE” (McMaster University, priority 2021, published 2026)
“Also recorded” adds a separate entry of the source.

Columns and labels:
[1] = system: ER Ca^2+ levels; assay: ER Ca2+ in HuH7 cells (D1ER, Mag-Fluo-4, TG-induced efflux); assay type: cell-based, human; settings: TG 100 nM, CDN 100 μM, CF 200 μM, 24 h
Protocol: Intracellular Ca^2+ in Huh7 and HepG2 cells was measured using a high-affinity Ca^2+ indicator, Fura-2-AM (Thermofisher Scientific). ER Ca^2+ levels were assessed using the low-affinity Ca^2+ indicator, Mag-Fluo-4, and via transfection of cells with D1ER. The D1ER plasmid encodes an ER-resident calcium binding protein linked to a fluorescent protein and increases in fluorescence intensity upon Ca^2+ binding (7). For assessment using indicators, cells were plated in black clear-bottom 96-well plates to a confluence of 70-75% and treated with Ca^2+ modulating agents for 24 h (n=6). Cells were then washed and incubated with Fura-2-AM (2 μM) or Mag-Fluo-4 (2 μM) for 45 minutes at 37° C. in HBSS containing 20 mM HEPES and 2% pluronic acid v/v (Thermofisher Scientific). Fluorescence intensity of intracellular Fura-2-AM was measured at two distinct wavelengths (ex 340/em 515 and ex 380/em 515), following three consecutive washes, to assess bound and unbound states using a SpectraMax® GeminiEM fluorescent spectrophotometer (Molecular Devices, Sunnyvale, California, USA). Fluorescence intensity of Mag-Fluo-4 was quantified at a single wavelength (ex 495/em 515). […] Twenty-four h later, cells were treated with Ca^2+ modulating agents for an additional 24 h and quantified (ex 495/em 515) using a SpectraMax® GeminiEM fluorescent spectrophotometer.
Among the many intracellular effects of CF on the cell, its ability to increase intracellular Ca^2+ levels is well-studied (Echeverri, D., et al., 2010). […] ER Ca^2+ levels were then examined in cells transfected with D1ER; a genetically-encoded ER-resident fluorescence resonance energy transfer (FRET)-based […] chameleon Ca^2+ sensor, which increases in fluorescence intensity upon Ca^2+ binding (Palmer, A. E., et al., 2004). The low-affinity Ca^2+ indicator, Mag-Fluo-4, was also utilized for the direct assessment of ER Ca^2+ and increases in fluorescence intensity upon Ca^2+ binding (Diercks, B. P., et al., 2017; Lebeau, P., et al., 2021). […] ER Ca^2+ content was also assessed indirectly with the high affinity Ca^2+ dye, fura-2-AM (FIG. 6 B). […]

[2] = system: PCSK9; assay: PCSK9 expression in hepatocytes (immunoblot, real-time PCR); assay type: cell-based, human, mouse
Protocol: HuH7 and HepG2 cells were routinely grown in complete Dulbecco's Modified Eagle's Medium (Gibco, Thermofisher Scientific) supplemented with 10% fetal bovine serum (Sigma-Aldrich) and 100 U/ml of penicillin and streptomycin (Sigma-Aldrich). […] All cell treatments were carried out for 24 h unless otherwise stated. Cells were transfected with a cocktail consisting of plasmid DNA (1 μg), X-tremeGENE HP (3 μl; Thermofisher Scientific) and opti-MEM (100 μl; Thermofischer Scientific) per 1 ml complete medium containing plated cells. Human PCSK9 was overexpressed using the bicistronic pIRES-EGFP plasmid; calnexin using the mPA-GFP-N1 plasmid. To block the expression of GRP78 and CD36, siGENOME smartpool siRNA was purchased from GE Dharmacon (M-008198-02 and L-010206-00-0005 respectively) and transfected using lipofectamine RNAiMAX as per manufacturer's protocol.
Cells were washed in phosphate-buffered saline (PBS), lysed in 4× SDS-PAGE lysis buffer and separated on 7-10% polyacrylamide gels in denaturing conditions. Gels were transferred to nitrocellulose membranes using the BioRad mini trans-blot system, blocked in 5% skim milk in tris-buffered saline (TBS) for 1 h and incubated in primary antibody overnight for 16 h at 4° C. Membranes were then exposed to horse radish peroxidase conjugated secondary antibodies and visualized using EZ-ECL chemiluminescent reagent (Froggabio). Band intensities were quantified using ImageJ software ([…]) against membranes reprobed for housekeeping proteins.
RNA purification/isolation was performed using RNeasy mini kits (Qiagen) and normalized to 2 μg RNA using a NanoDrop® spectrophotometer. Samples were then reverse transcribed into cDNA using Superscript Vilo cDNA Synthesis kit (Thermofisher Scientific). Real-time PCR was executed with Fast SYBR Green (Thermo Fisher Scientific) using the ΔΔct method on the ViiA7 real-time PCR platform (Thermofisher Scientific).
Cultured immortalized hepatocytes known to express and secrete PCSK9 (Lebeau, P., et al., 2017), including HuH7 and HepG2 cells, as well as primary mouse- and human-hepatocytes (PMH and PHH, respectively), were treated with CF for 24 h and assessed for PCSK9 expression via immunoblots and real-time PCR (FIG. 1 A to D). […] Given that sterol deprivation represents another well-established promoter of SREBP2 activation (Lebeau, P., et al., 2017), cells were also treated with CF in the presence and absence of U18666A (U18) that depletes intracellular sterols. […] Next, HepG2 cells were treated with an increasing dose of CF.

Row | SMILES | ER Ca^2+ levels [1] | SREBP2 and PCSK9 mRNA transcript level ([2]; HuH7, ryanodine 10 μM, CDN 100 μM, 2 APB 50 μM, presence or absence of TG, 24 h) | PCSK9 and SREBP2 expression on ER Ca2+ depletion ([2]; HuH7, TG 100 nM, CPA 10 μM) | TG-induced PCSK9 expression ([2]; CF 200 μM with thapsigargin 100 nM, 24 h) | PCSK9 mRNA and secreted protein in presence of ActD ([2]; HepG2 pre-treated with actinomycin D) | PCSK9 and SREBP2 mRNA and secreted PCSK9 in presence of siGRP78 ([2]; HepG2 transfected with siGRP78) | PCSK9 protein and mRNA transcript levels ([2]; HuH7, HepG2, PMH, PHH, 24 h, listed as CF) | U18-induced PCSK9 expression ([2]; HuH7, CF 200 μM with U18 10 μM, 24 h)
1 | Cc1ccc2cccc(NC(=O)c3ccc(OC(C)C)cc3)c2n1 [CDN] | increased ER Ca^2+ levels | blocked SREBP2 and PCSK9 at the mRNA transcript level | – | – | – | – | – | –
2 | C/C=C(/C)C(=O)O[C@H]1C(C)=C2[C@H]([C@@H]1OC(=O)CCCCCCC)[C@@](C)(OC(C)=O)C[C@H](OC(=O)CCC)[C@@]1(O)[C@H]2OC(=O)[C@@]1(C)O [TG, thapsigargin] | reduced ER Ca^2+ levels | – | increased PCSK9 and SREBP2 expression | – | – | – | – | –
3 | Cn1c(=O)c2c(ncn2C)n(C)c1=O [caffeine, 1,3,7-Trimethylxanthine] | increased ER Ca^2+ levels | – | – | attenuated PCSK9 expression | failure of CF to block PCSK9 mRNA | failed to attenuate PCSK9 and SREBP2 mRNA expression or secreted PCSK9 levels | reduced protein and mRNA transcript levels of PCSK9; also recorded: blocks PCSK9 expression | attenuated U18-induced PCSK9 expression
